Molecules are shown by their SMILES.

Chain of GST-Xa-hAAK1 (Q2M2I8 whole entry): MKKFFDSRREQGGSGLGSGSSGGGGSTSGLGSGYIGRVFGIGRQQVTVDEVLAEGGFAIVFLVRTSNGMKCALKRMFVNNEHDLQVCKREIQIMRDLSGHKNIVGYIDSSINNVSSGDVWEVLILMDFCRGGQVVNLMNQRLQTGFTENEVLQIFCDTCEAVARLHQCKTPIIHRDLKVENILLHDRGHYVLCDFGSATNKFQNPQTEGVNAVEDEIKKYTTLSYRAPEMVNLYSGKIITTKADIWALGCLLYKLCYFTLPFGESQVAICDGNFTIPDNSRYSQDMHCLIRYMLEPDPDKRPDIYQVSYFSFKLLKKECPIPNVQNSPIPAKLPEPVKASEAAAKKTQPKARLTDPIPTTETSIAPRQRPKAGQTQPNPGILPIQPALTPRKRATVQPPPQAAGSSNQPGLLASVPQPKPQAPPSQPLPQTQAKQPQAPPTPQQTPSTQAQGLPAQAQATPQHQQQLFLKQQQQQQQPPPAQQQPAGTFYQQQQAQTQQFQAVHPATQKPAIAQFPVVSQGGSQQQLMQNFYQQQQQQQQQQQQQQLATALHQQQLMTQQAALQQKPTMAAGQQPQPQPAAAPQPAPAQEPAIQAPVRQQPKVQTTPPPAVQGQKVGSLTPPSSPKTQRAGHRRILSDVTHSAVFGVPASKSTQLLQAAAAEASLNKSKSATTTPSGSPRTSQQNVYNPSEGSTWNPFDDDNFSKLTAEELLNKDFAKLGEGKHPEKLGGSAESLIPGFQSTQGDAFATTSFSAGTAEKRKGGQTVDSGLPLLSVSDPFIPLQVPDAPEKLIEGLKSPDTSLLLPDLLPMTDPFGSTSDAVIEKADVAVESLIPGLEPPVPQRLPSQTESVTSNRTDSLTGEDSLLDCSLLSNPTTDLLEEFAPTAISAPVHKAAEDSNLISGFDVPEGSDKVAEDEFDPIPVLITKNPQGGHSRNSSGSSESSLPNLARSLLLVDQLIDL

The assay concerns the target GST-Xa-hAAK1 (Homo sapiens (Human), UniProt Q2M2I8). In words: AAK1 Kinase Assay.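 Note: each compound tested across an eleven-point concentration series, with IC50 obtained through non-linear regression fitting.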 The conditions noted are these: bacterially expressed GST-Xa-hAAK1 3.5 nM; ATP 22 μM; peptide substrate 1.5 μM; 3 hours at room temperature; Caliper LabChip 3000. It is filed as biochemical.
Method: The assays were performed in U-bottom 384-well plates. […] The reactions were initiated by the combination of bacterially expressed, GST-Xa-hAAK1 with substrates and test compounds. The reactions were incubated at room temperature for 3 hours and terminated by adding 60 μl of 35 mM EDTA buffer to each sample. […] Compounds were dissolved at 10 mM in dimethylsulfoxide (DMSO) and evaluated at eleven concentrations. IC50 values were derived by non-linear regression analysis.
With `CC(C)C[C@](C)(N)COc1ccc(-c2ccnc3ccc(F)cc23)cc1C(F)F` [Example 116, (S)-1-(2-(difluoromethyl)-4-(6-fluoroquinolin-4-yl)phenoxy)-2,4-dimethylpentan-2-amine], inhibition was half-maximal at 0.93 nM (IC50). This counts as sub-nanomolar. As for `CC(C)C[C@](C)(N)COc1cnc(-c2ccnc3ccccc23)cc1C(F)(F)F` [Example 145, (S)-2,4-dimethyl-1-((6-(quinolin-4-yl)-4-(trifluoromethyl)pyridin-3-yl)oxy)pentan-2-amine], the IC50 (commonly the point on the concentration scale where inhibition reaches its midpoint) was 0.24 nM. As to `CC(C)C[C@](C)(N)COc1cnc(-c2ccnc(Cl)c2)cc1C(F)F` [Example 147, (S)-1-((2′-chloro-4-(difluoromethyl)-[2,4′-bipyridin]-5-yl)oxy)-2,4-dimethylpentan-2-amine], the IC50 came out at 0.56 nM. Then `Cc1c(-c2ccc(OC[C@@](C)(N)CC(C)C)c(C(F)(F)F)c2)ccnc1F` [Example 41, (S)-1-(4-(2-fluoro-3-methylpyridin-4-yl)-2-(trifluoromethyl)phenoxy)-2,4-dimethylpentan-2-amine], with 3.8 nM; and `CC(=O)Nc1cc(-c2cc(F)c(OC[C@@H](N)CC(C)C)c(C(F)(F)F)c2)ccn1` [Example 11, (S)—N-(4-(4-((2-amino-4-methylpentyl)oxy)-3-fluoro-5-(trifluoromethyl)phenyl)pyridin-2-yl)acetamide], with 3.3 nM; and `COC(=O)Nc1cc(-c2cc(C)c(OC[C@@](C)(N)CC(C)C)cn2)ccn1` [Example 68, (S)-methyl (5-((2-amino-2,4-dimethylpentyl)oxy)-4-methyl-[2,4′-bipyridin]-2′-yl)carbamate], with 2.6 nM. `CC(C)C[C@](C)(N)COc1ncc(-c2ccnc3cc(F)cc(F)c23)cc1C(F)(F)F` [Example 218, (S)-1-((5-(5,7-difluoroquinolin-4-yl)-3-(trifluoromethyl)pyridin-2-yl)oxy)-2,4-dimethylpentan-2-amine]: the IC50 is 1 nM. In turn, `CC(=O)Nc1cc(-c2ccc(OC[C@@H](N)CC(C)C)c(C#N)c2)ccn1` [Example 3, (S)—N-(4-(4-((2-amino-4-methylpentyl)oxy)-3-cyanophenyl)pyridin-2-yl)acetamide] returned a 50% inhibitory concentration (IC50) of 0.3 nM. `Cc1nccc(-c2ccc(OC[C@@](C)(N)CC(C)C)c(C(F)(F)F)c2)c1C(=O)O` [Example 111, (S)-4-(4-((2-amino-2,4-dimethylpentyl)oxy)-3-(trifluoromethyl)phenyl)-2-methylnicotinic acid] had a concentration for half-maximal inhibition (IC50) of 650 nM. Turning to `CC(C)C[C@](C)(N)COc1ccc(C2=CCOCC2)cc1C(F)(F)F` [Example 215, (S)-1-(4-(3,6-dihydro-2H-pyran-4-yl)-2-(trifluoromethyl)phenoxy)-2,4-dimethylpentan-2-amine], the IC50 was 197 nM. Next, `CC(=O)Nc1cc(-c2ccc(OC[C@@](C)(N)CC(C)C)c(OC(F)(F)F)c2)ccn1` [Example 25, (S)—N-(4-(4-((2-amino-2,4-dimethylpentyl)oxy)-3-(trifluoromethoxy)phenyl)pyridin-2-yl)acetamide]: 1 nM; `CC(C)C[C@](C)(N)COc1ccc(-c2ccncc2)cc1C(F)(F)F` [Example 43, (S)-2,4-dimethyl-1-(4-(pyridin-4-yl)-2-(trifluoromethyl)phenoxy)pentan-2-amine]: 0.64 nM; `COC(=O)Nc1cc(-c2cc(C(F)F)c(OC[C@](N)(CF)CC(C)C)cn2)ccn1` [Example 181, (S)-methyl (5-((2-amino-2-(fluoromethyl)-4-methylpentyl)oxy)-4-(difluoromethyl)-[2,4′-bipyridin]-2′-yl)carbamate]: 1.9 nM. For the compound `COC(=O)Nc1cc(-c2ccc(OC[C@@](C)(N)CC(C)C)c(CO)c2)ccn1` [Example 32, (S)-methyl (4-(4-((2-amino-2,4-dimethylpentyl)oxy)-3-(hydroxymethyl)phenyl)pyridin-2-yl)carbamate], the IC50 was found to be 4.5 nM. Turning to `CC(C)C[C@](C)(N)COc1ccc(-c2ccnc3cc(C(F)(F)F)ccc23)cc1C(F)(F)F` [Example 70, (S)-2,4-dimethyl-1-(2-(trifluoromethyl)-4-(7-(trifluoromethyl)quinolin-4-yl)phenoxy)pentan-2-amine], the IC50 is 2.3 nM. `CC(C)C[C@](C)(N)COc1ccc(-c2ccnc3ccccc23)c2ccccc12` [Example 209, (S)-2,4-dimethyl-1-((4-(quinolin-4-yl)naphthalen-1-yl)oxy)pentan-2-amine]: half-maximal inhibition (IC50) was put at 21 nM. Then `Cc1ccc2c(-c3cnc(OC[C@@](C)(N)CC(C)C)c(C(F)F)c3)ccnc2c1` [Example 205, (S)-1-((3-(difluoromethyl)-5-(7-methylquinolin-4-yl)pyridin-2-yl)oxy)-2,4-dimethylpentan-2-amine], with 0.7 nM; and `CC(=O)Nc1cc(-c2ccc(OC[C@@](C)(N)CC(C)C)c(C(F)(F)F)c2)ccn1` [Example 19, (S)—N-(4-(4-((2-amino-2,4-dimethylpentyl)oxy)-3-(trifluoromethyl)phenyl)pyridin-2-yl)acetamide], with 0.36 nM.

`CC(=O)Nc1cccc(-c2ccc(OC[C@](C)(N)CC(C)C)c(C)c2)c1` [Example 251] registered a concentration for half-maximal inhibition (IC50) of 1100 nM. Then `Cc1cc(-c2ccc(OC[C@@](C)(N)CC(C)C)c(C(F)F)n2)cnn1` [Example 163, (S)-1-((2-(difluoromethyl)-6-(6-methylpyridazin-4-yl)pyridin-3-yl)oxy)-2,4-dimethylpentan-2-amine], with 1100 nM. In turn, `CCc1cc(-c2cc(C(F)F)c(OC[C@@](C)(N)CC(C)C)cn2)ccn1` [Example 141, (S)-1-((4-(difluoromethyl)-2′-ethyl-[2,4′-bipyridin]-5-yl)oxy)-2,4-dimethylpentan-2-amine] had a concentration for half-maximal inhibition (IC50) of 1.8 nM. Regarding `Cc1cc(-c2ccc(OC[C@@](C)(N)CC(C)C)c(F)c2)ccn1` [Example 91, (S)-1-(2-fluoro-4-(2-methylpyridin-4-yl)phenoxy)-2,4-dimethylpentan-2-amine], the IC50 was 12.1 nM.

As to `CC(C)C[C@](C)(N)COc1ccc(-c2cc(F)ncc2Cl)cc1C(F)(F)F` [Example 40, (S)-1-(4-(5-chloro-2-fluoropyridin-4-yl)-2-(trifluoromethyl)phenoxy)-2,4-dimethylpentan-2-amine], 8.7 nM corresponded to half-maximal inhibition (IC50). With `COC(=O)Nc1cc(-c2ccc(OCC(C)(N)CC(C)C)cn2)ccn1` (stereo not shown) [Example 63, methyl (5-((2-amino-2,4-dimethylpentyl)oxy)-[2,4′-bipyridin]-2′-yl)carbamate], the half-inhibitory concentration (IC50) came to 24 nM. Regarding `CC(C)C[C@](C)(N)COc1cnc(-c2ccnc3cc(F)cc(F)c23)cc1Cl` [Example 233, (S)-1-((4-chloro-6-(5,7-difluoroquinolin-4-yl)pyridin-3-yl)oxy)-2,4-dimethylpentan-2-amine], half-maximal inhibition (IC50) required 0.73 nM. This IC50 lies about 33-fold lower than the previous one. Compound `Cc1nc(-c2ccnc(N)c2F)ccc1OC[C@@](C)(N)CC(C)C` [Example 153, (S)-5-((2-amino-2,4-dimethylpentyl)oxy)-3′-fluoro-6-methyl-[2,4′-bipyridin]-2′-amine] had a half-maximal inhibitory concentration (IC50) of 1.9 nM. `CC(C)C[C@](N)(CF)COc1cnc(-c2ccnc(C(F)F)c2)cc1C(F)F` [Example 186, (R)-1-((2′,4-bis(difluoromethyl)-[2,4′-bipyridin]-5-yl)oxy)-2-(fluoromethyl)-4-methylpentan-2-amine]: the IC50 came out at 18 nM. `CC(C)C[C@](C)(N)COc1ccc(-c2ccnc3cccnc23)cc1C#N` [Example 87, (S)-2-((2-amino-2,4-dimethylpentyl)oxy)-5-(1,5-naphthyridin-4-yl)benzonitrile]: the IC50 amounted to 0.87 nM.

Take `CC(C)C[C@@](C)(N)COc1ncc(-c2ccnc3ccccc23)cc1C(F)F` [Example 246, (R)-1-((3-(difluoromethyl)-5-(quinolin-4-yl)pyridin-2-yl)oxy)-2,4-dimethylpentan-2-amine]: half-maximal inhibition (IC50) was put at 26 nM.

In turn, `Cc1nc(-c2ccnc3ccc(F)cc23)ccc1OC[C@@](C)(N)CC(C)C` [Example 138, (S)-1-((6-(6-fluoroquinolin-4-yl)-2-methylpyridin-3-yl)oxy)-2,4-dimethylpentan-2-amine] returned an IC50 of 35 nM. Then `Cc1cc(-c2ccnc3cc(F)cc(F)c23)cnc1OC[C@@](C)(N)CC(C)C` [Example 224, (S)-1-((5-(5,7-difluoroquinolin-4-yl)-3-methylpyridin-2-yl)oxy)-2,4-dimethylpentan-2-amine], with 1.1 nM; and `CC(C)C[C@](C)(N)COc1ccc(-c2ccnc(C(F)F)c2)nc1C(F)F` [Example 123, (S)-1-((2′,6-bis(difluoromethyl)-[2,4′-bipyridin]-5-yl)oxy)-2,4-dimethylpentan-2-amine], with 2.2 nM. Turning to `COC(=O)Nc1cc(-c2ccc(OC[C@@](C)(N)CC(C)C)c(C)n2)c(F)cn1` [Example 155, (S)-methyl (5-((2-amino-2,4-dimethylpentyl)oxy)-5′-fluoro-6-methyl-[2,4′-bipyridin]-2′-yl)carbamate], the IC50 came to 57 nM. Regarding `CC(C)C[C@](C)(N)COc1cnc(-c2ccnc(C(F)F)c2)cc1C(F)F` [Example 124, (S)-1-((2′,4-bis(difluoromethyl)-[2,4′-bipyridin]-5-yl)oxy)-2,4-dimethylpentan-2-amine], the IC50 worked out at 1.2 nM.

Compound `CC(C)C[C@](C)(N)COc1ncc(-c2ccnc3cc(F)ccc23)cc1Cl` [Example 190, (S)-1-((3-chloro-5-(7-fluoroquinolin-4-yl)pyridin-2-yl)oxy)-2,4-dimethylpentan-2-amine] came in with an IC50 of 1.2 nM.

Regarding `Cc1cc(-c2ccnc(F)c2)ccc1OC[C@@](C)(N)CC(C)C` [Example 92, (S)-1-(4-(2-fluoropyridin-4-yl)-2-methylphenoxy)-2,4-dimethylpentan-2-amine], half-maximal inhibition (IC50) was put at 5.4 nM. `Cc1cc(-c2ccc(OC[C@@](C)(N)CC(C)C)c(C(F)(F)F)c2)c2ccccc2n1` [Example 216, (S)-2,4-dimethyl-1-(4-(2-methylquinolin-4-yl)-2-(trifluoromethyl)phenoxy)pentan-2-amine]: the IC50 worked out at 25 nM. Compared with the last compound, the IC50 is about 4.6-fold higher.
